The record followed here is ChEMBL document CHEMBL5375953, “Discovery of Biaryl Amide Derivatives as Potent, Selective, and Orally Bioavailable RORγt Agonists for Cancer Immunotherapy” (J Med Chem, 2023).

Molecules are shown by their SMILES.

Data set [1] can be described thus: Metabolic Stability in human liver microsome assessed as half life at […] measured upto 60 mins by HPLC-MS/MS analysis. The note with it: liver microsomes. Format: ADME. Background: Liver microsomes are vesicles of endoplasmic reticulum, rich in cytochrome P450 enzymes.
The nature of data set [2]: Metabolic Stability in mouse liver microsome assessed as intrinsic clearance at […] measured upto 60 mins by HPLC-MS/MS analysis. To be noted: microsomes, 1 h. It is filed as ADME.
Data set [3] can be described thus: Half life in CD-1 mouse at 5 mg/kg,po administration measured after 24 hrs by LC-MS/MS analysis. It is filed as ADME, organism-based. To be noted: in vivo.
The nature of data set [4]: Metabolic Stability in cynomolgus monkey liver microsome assessed as intrinsic clearance at […] measured upto 60 mins by HPLC-MS/MS analysis. Format: ADME, Macaca fascicularis. The note with it: microsomes, 1 h.
Data set [5] in a line: Genotoxicity in Salmonella typhimurium TA100 by mini-Ames mutagenicity test. It is filed as toxicity. The note with it: salmonella enterica subsp. enterica serovar typhimurium. A general note: In the Ames test, an excess of revertant colonies over the control signals mutagenicity.
Data set [6] in a line: Antitumor activity against mouse Lung adenocarcinoma cell line xenografted in C57BL/6 mouse assessed as tumor growth inhibition at 100 mg/kg,po administrated on day 7 for 12 days relative to control. It is filed as functional. The note with it: 288 h, time 12 day, read-out: TGI.
Data set [7] in a line: Cmax in dog at 2 mg/kg,po administration measured after 24 hrs by LC-MS/MS analysis. Format: ADME, organism-based, Canis lupus familiaris. On the set-up: dose 2 mg/kg, time 24 hrs, route po. The note with it: in vivo.
The nature of data set [8]: AUC(infinity) in rat at 1 mg/kg,iv administration measured after 24 hrs by LC-MS/MS analysis. Format: ADME, organism-based. Also noted: dose 1 mg/kg, time 24 hrs, route iv. To be noted: in vivo.
In data set [9] the target is T1, Nuclear receptor ROR-alpha (Homo sapiens, UniProt P35398).
T1 sequence (P35398 whole entry): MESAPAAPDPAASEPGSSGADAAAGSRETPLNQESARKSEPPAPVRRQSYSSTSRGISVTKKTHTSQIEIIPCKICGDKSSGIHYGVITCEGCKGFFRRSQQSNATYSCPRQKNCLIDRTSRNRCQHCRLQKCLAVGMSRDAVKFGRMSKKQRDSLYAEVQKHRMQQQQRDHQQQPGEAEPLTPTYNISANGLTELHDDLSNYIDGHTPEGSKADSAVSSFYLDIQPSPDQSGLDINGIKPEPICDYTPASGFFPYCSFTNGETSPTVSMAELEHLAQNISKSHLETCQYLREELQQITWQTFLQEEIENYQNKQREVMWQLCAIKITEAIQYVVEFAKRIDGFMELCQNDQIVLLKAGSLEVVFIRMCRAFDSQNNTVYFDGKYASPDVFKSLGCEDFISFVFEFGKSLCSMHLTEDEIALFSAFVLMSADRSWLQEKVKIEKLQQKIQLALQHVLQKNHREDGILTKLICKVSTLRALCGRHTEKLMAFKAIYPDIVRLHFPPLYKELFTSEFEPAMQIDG
The data set can be described thus: Agonist activity at human Gal4-fused RORalpha expressed in HEK293T cells assessed as luciferase activity incubated for 16 to 20 hrs by Luciferase reporter gene assay. It is filed as cell-based.

Data set [10] in a line: Metabolic Stability in dog liver microsome assessed as half life at […] measured upto 60 mins by HPLC-MS/MS analysis. The note with it: liver microsomes. It is filed as ADME, Canis lupus familiaris.
The nature of data set [11]: Clearance in dog at 1 mg/kg,iv administration measured after 24 hrs by LC-MS/MS analysis. It is filed as ADME, organism-based, Canis lupus familiaris. The note with it: in vivo.
The nature of data set [12]: Genotoxicity in Salmonella typhimurium TA98 by mini-Ames mutagenicity test. Format: toxicity. To be noted: salmonella enterica subsp. enterica serovar typhimurium.
Data set [13] is described as follows: Half life in CD-1 mouse at 1 mg/kg,iv administration measured after 24 hrs by LC-MS/MS analysis. It is filed as ADME, organism-based. To be noted: in vivo.
Data set [14] is described as follows: Metabolic Stability in dog liver microsome assessed as intrinsic clearance at […] measured upto 60 mins by HPLC-MS/MS analysis. Format: ADME, Canis lupus familiaris. The note with it: microsomes, 1 h.
Data set [15] is described as follows: Volume of distribution at steady state in dog at 1 mg/kg,iv administration measured after 24 hrs by LC-MS/MS analysis. Format: ADME, organism-based, Canis lupus familiaris. To be noted: in vivo, read-out: Vdss.
A short description of data set [16]: Cmax in CD-1 mouse at 5 mg/kg,po administration measured after 24 hrs by LC-MS/MS analysis. The note with it: in vivo. On the set-up: dose 5 mg/kg, time 24 hrs, route po. Format: ADME, organism-based.
The nature of data set [17]: Oral bioavailability in CD-1 mouse at 5 mg/kg administration measured after 24 hrs by LC-MS/MS analysis. It is filed as ADME, organism-based. To be noted: in vivo.
A short description of data set [18]: Metabolic Stability in cynomolgus monkey liver microsome assessed as half life at […] measured upto 60 mins by HPLC-MS/MS analysis. It is filed as ADME, Macaca fascicularis. The note with it: liver microsomes.
A short description of data set [19]: Metabolic Stability in human liver microsome assessed as intrinsic clearance at […] measured upto 60 mins by HPLC-MS/MS analysis. Format: ADME. To be noted: microsomes, 1 h.

In the case of `CCS(=O)(=O)c1ccc(CC(=O)Nc2cc(Cl)c(-c3ccc(OC(C)C)c(C#N)c3)c(Cl)c2)cc1`, the half-life (commonly the time needed for the level to fall by half in the phase considered) in data set [1] is above 2.42 h; in data set [3], 6 h; in data set [10], above 2.42 h; in data set [18], 0.518 h. Moreover, the CLH in data set [2] was below 38 µL/min/mg; in data set [4] it was 60.2 µL/min/mg; in data set [14], below 13.8 µL/min/mg; in [19], below 8.6 µL/min/mg. Besides, the Activity entry in data set [5] and in [12] was “Non-Toxic” in each case. Also, in data set [6], the inhibition in vivo at 100 mg/kg was 49.8%. For the same compound, the Cmax (as a rule, the highest concentration seen after dosing) in data set [7] came out at 518 ng/mL; in data set [16] it was 1810 ng/mL. For the same compound, the AUC(0-inf) (in general, the area under the concentration-time curve extrapolated to infinity) in data set [8] stood at 5410 ng·h/mL. In addition, in [9], the EC50 – broadly, the concentration at which the effect is half-maximal – was above 10 µM. Further, the clearance (in general, the volume of plasma or blood freed of the substance per unit of time) in [11] is 0.64 mL/min/kg. Besides, the t1/2 in [13] came to 6.3 h. Also, the Vd in data set [15] came to 2.5 L/kg. Further, the bioavailability (as a rule, dose-corrected exposure relative to a reference, in per cent) in data set [17] was found to be 90.3%.
